From ChEMBL document CHEMBL1139232, “Isothiazoloquinolones with enhanced antistaphylococcal activities against multidrug-resistant strains: effects of structural modifications at the 6-, 7-, and 8-positions” (J Med Chem, 2007) come the findings set out here.

In brackets after ≈: the same amount, converted by molar mass.

Data set [1] in a line: Cytotoxicity against human Hep2 cell line after 72 hrs. The conditions noted are these: Hep2 cells. It counts as cell-based, HEp-2.
Data set [2] relates to Staphylococcus aureus. The data set can be described thus: Antibacterial activity against methicillin-resistant Staphylococcus aureus. In kind it is functional.
Data set [3] deals with Staphylococcus aureus. The data set can be described thus: Antibacterial activity against Staphylococcus aureus. In kind it is functional.
The subject of data set [4] is Staphylococcus aureus. In words: Antibacterial activity against Staphylococcus aureus ATCC 33591 infected in CD1 mouse at 20 mg/kg, sc. It counts as functional. The conditions noted are these: route subcutaneous.
Data set [5] deals with Staphylococcus aureus. The data set can be described thus: Antibacterial activity against vancomycin-sensitive Staphylococcus aureus F988633. It counts as functional.
The test system of data set [6] is Staphylococcus aureus. In words: Antibacterial activity against vancomycin intermediate-resistant Staphylococcus aureus F988647. It counts as functional.
In data set [7] the test system is Staphylococcus aureus. The data set can be described thus: Antibacterial activity against vancomycin intermediate-resistant Staphylococcus aureus F988644. In kind it is functional.
The test system of data set [8] is Staphylococcus aureus. The data set can be described thus: Antibacterial activity against vancomycin-resistant Staphylococcus aureus F800236. In kind it is functional.
Data set [9] deals with Staphylococcus aureus. The data set can be described thus: Antibacterial activity against Staphylococcus aureus ATCC 33591 infected in CD1 mouse at 10 mg/kg, sc. In kind it is functional. The conditions noted are these: route subcutaneous.
For data set [10], the system named is Staphylococcus aureus. In words: Antibacterial activity against vancomycin intermediate-resistant Staphylococcus aureus F977218. In kind it is functional.
For data set [11], the system named is Staphylococcus aureus. In words: Antibacterial activity against vancomycin-resistant Staphylococcus aureus F800238. In kind it is functional.
For data set [12], the system named is Staphylococcus aureus. The data set can be described thus: Antibacterial activity against vancomycin intermediate-resistant Staphylococcus aureus F988650. In kind it is functional.
The test system of data set [13] is Staphylococcus aureus. In words: Antibacterial activity against vancomycin intermediate-resistant Staphylococcus aureus F988653. In kind it is functional.
In data set [14] the test system is Staphylococcus aureus. The data set can be described thus: Antibacterial activity against vancomycin intermediate-resistant Staphylococcus aureus F977215. It counts as functional.
Data set [15] has as its system Staphylococcus aureus. In words: Antibacterial activity against vancomycin intermediate-resistant Staphylococcus aureus F977210. In kind it is functional.

Take `COc1c(-c2ccnc(C)c2)ccc2c(=O)c3c(=O)[nH]sc3n(C3CC3)c12`: the CC50 at 72 h in data set [1] is > 100 µM. In data set [2], this molecule returned an MIC of 1 µg/mL (≈ 2.64 µM).
The corresponding values for `C[C@H]1NCc2cc(-c3cc4c(cc3F)c(=O)c3c(=O)[nH]sc3n4C3CC3)ccc21` are 2 µM and 1 µg/mL (≈ 2.45 µM).
As to `COc1c(-c2ccc3c(c2)CCNC3)ccc2c(=O)c3c(=O)[nH]sc3n(C3CC3)c12`, the midpoint of cytotoxicity in data set [1], the CC50 at 72 h, lay at 89 µM. In data set [2], this molecule had an MIC of 4 µg/mL (≈ 9.54 µM).
The corresponding values for `COc1c(-c2ccncc2)c(F)cc2c(=O)c3c(=O)[nH]sc3n(C3CC3)c12` are > 100 µM and 1 µg/mL (≈ 2.61 µM).
For `CC(=O)NC[C@H]1CN(c2ccc(N3CCOCC3)c(F)c2)C(=O)O1` [LINEZOLID], in data set [3], the MIC50 came to 2 µg/mL (≈ 5.93 µM) and the MIC90 was determined as 2 µg/mL (≈ 5.93 µM). The same molecule returned a Log10 cfu in data set [4] of 0.2. Moreover, the MIC in [5] was > 16 µg/mL. In data set [2], the MIC50 amounted to 2 µg/mL (≈ 5.93 µM) and the MIC90 stood at 2 µg/mL (≈ 5.93 µM).
In data set [1], `COc1c(-c2ccc3c(c2)CNC3)ccc2c(=O)c3c(=O)[nH]sc3n(C3CC3)c12` came in with a half-maximal cytotoxic concentration (CC50) at 72 h of 97 µM. This molecule showed an MIC in data set [2] of 2 µg/mL (≈ 4.93 µM).
As for `COc1c(-c2ccc3c(c2)CCNC3)c(F)cc2c(=O)c3c(=O)[nH]sc3n(C3CC3)c12`, in data set [1], the cytotoxic concentration (CC50) at 72 h was 57 µM. The same molecule returned an MIC in data set [2] of 2 µg/mL (≈ 4.57 µM).
The corresponding values for `O=c1[nH]sc2c1c(=O)c1cc(F)c(-c3ccc4c(c3)CNC4)cc1n2C1CC1` are 8 µM and 2 µg/mL (≈ 5.08 µM).
In the same order, the values of `COc1c(-c2ccc3c(c2)CCN(C)C3)c(F)cc2c(=O)c3c(=O)[nH]sc3n(C3CC3)c12` are 61 µM and 4 µg/mL (≈ 8.86 µM).
In the same order, the values of `O=c1[nH]sc2c1c(=O)c1cc(F)c(-c3ccc4c(c3)CCNC4)cc1n2C1CC1` are 7 µM and 2 µg/mL (≈ 4.91 µM).
For `COc1c(-c2cc(C)nc(C)c2)ccc2c(=O)c3c(=O)[nH]sc3n(C3CC3)c12`, the 50% cytotoxic concentration (CC50) at 72 h in data set [1] was > 100 µM. In addition, in data set [2], it took 1 µg/mL (≈ 2.54 µM) to inhibit growth (MIC).
`COc1c(-c2ccc3cnccc3c2)ccc2c(=O)c3c(=O)[nH]sc3n(C3CC3)c12` yielded a 50% cytotoxic concentration (CC50) at 72 h in data set [1] of 45 µM. In addition, 0.12 µg/mL (≈ 0.289 µM) was the least that counted as inhibitory in data set [2] (MIC).
On to `Cc1cc(-c2nc3c(cc2F)c(=O)c2c(=O)[nH]sc2n3C2CC2)ccn1`, for which the CC50 at 72 h in data set [1] was > 100 µM. In addition, the MIC in data set [2] came out at 8 µg/mL (≈ 21.7 µM).
On to `CN[C@H](CC(C)C)C(=O)N[C@H]1C(=O)N[C@@H](CC(N)=O)C(=O)N[C@H]2C(=O)N[C@H]3C(=O)N[C@H](C(=O)N[C@H](C(=O)O)c4cc(O)cc(O)c4-c4cc3ccc4O)[C@H](O)c3ccc(c(Cl)c3)Oc3cc2cc(c3O[C@@H]2O[C@H](CO)[C@@H](O)[C@H](O)[C@H]2O[C@H]2C[C@](C)(N)[C@H](O)[C@H](C)O2)Oc2ccc(cc2Cl)[C@H]1O` [VANCOMYCIN], for which the minimal inhibitory concentration (MIC) in [6] was 8 µg/mL (≈ 5.52 µM); in [7], 8 µg/mL (≈ 5.52 µM); in data set [8], > 32 µg/mL; in data set [10], 8 µg/mL (≈ 5.52 µM); in data set [11], > 32 µg/mL; in data set [12], 8 µg/mL (≈ 5.52 µM). Also, the MIC in data set [13], in data set [14] and in data set [15] was 8 µg/mL (≈ 5.52 µM) each time. Moreover, the MIC50 in data set [3] and in data set [2] was 1 µg/mL (≈ 0.69 µM) throughout. Besides, the MIC90 in [3] and in data set [2] was 8 µg/mL (≈ 5.52 µM) each time. This molecule registered a Log10 cfu in [9] of 0.31.
